# According to patent US11351134B2, “Small molecule agents, compositions, and formulations, for internal use, displaying inhibitory activity against gram-positive and/or gram-negative organisms” (NATUREZA, INC., priority 2017, dated 2022):
# Where two headings read alike, the source gives them in different places.
# Columns and labels:
# S. epidermidis = test: Broth microdilution MIC of lecithin/chitosan particle compositions; format: cell-based; details: for MIC: Staphylococcus epidermidis
# Method: (§1) Initially, to determine basic characteristics, each active component was separately mixed, generally under agitated conditions, with water, and each was miscible with water. Each, after being mixed with water, was tested in a broth microdilution assay, against a variety of bacteria using amounts of the each of the lauric acid derivatives, ranging from about 0.0009 wt. % to about 8 wt. %. The bacteria included Escherichia coli, and Staphylococcus aureus (including MRSA strains). The minimum inhibitory concentration (MIC) needed to prevent growth of the target bacteria was evaluated based on a method published by Clinical Laboratory Standards Institute (CLSI), broth microdilution method M-07 (M07). […] Each of the samples containing one of the lauric acid derivatives was compared with a positive control, decanoic acid.
# (§2) For TABLES 1 to 3, compositions were generally prepared as described above, and as further outlined in this paragraph. For these examples, the active component, as a lauric acid derivative or lauric acid, was suspended in an organic solvent, chloroform, and then mixed with water, under robust agitation. The amount of water to the amount of chloroform was at least about 2:1, and could be as high as 10:1. Chloroform was then evaporated (e.g., under vacuum using a freeze dryer). After removal of the chloroform, a 2.2% lecithin solution in an acetate buffer (e.g., 98 mM acetic acid and 2 mM sodium acetate) was prepared and added, so the final amount of the active component was about 1 part active component mixture and about 9 parts of the 2.2% lecithin solution. Of course, it is noted that other ranges to achieve final amount of the active component as described above (e.g., active component mixture and lecithin solution) may also be utilized. Cholesterol could also be optionally added. The mixture of lecithin and the active component was mixed and sonicated, and then a solution of about 1.5% chitosan was added. Thereafter, the entirety of the mixture containing the lecithin and the active component was further blended, in which a final ratio was about 1 part active component to about 9 parts of the 2.2% lecithin solution to about 10 parts of the 1.5% chitosan solution. The pH was then varied, to a pH of 5, or a pH of 7, or a pH of 9. In some mixtures having a pH of 7, a chemical agent imparting a positive charge to the chitosan was included in a form of glycol chitosan. In these tests, the chemical agent used was glycol. In these examples, the amount of chemical agent, glycol was about one molecule glycol moiety to one molecule chitosan sacharide unit; higher amounts of glycol moieties are also acceptable, while lower amounts of glycol moieties were often found to decrease overall inhibitory activity associated with a composition when formed and tested in vitro. It is noted that negatively charged chitosan containing particles were prepared. […] After mixing, the mixtures could each be filtered through a […] filter. In some tests, the mixtures were sonicated before filtering. Sonication produced small particles. In some studies, particles were freeze dried as a powder (generally, after mixing, sonicating and filtering).
# (§3) The positive controls were prepared and evaluated in a similar manner. All prepared samples were tested using a broth microdilution test.
# E. coli = test: as above; format: cell-based; details: for MIC: Escherichia coli; for MIC (mg/ml) for E. coli (chitosan prep. mixture was at pH 5 or at pH 7): prep. mixture pH 5 or pH 7
# Method: as §1, §2, §3
# Escherichia coli = test: Broth microdilution (CLSI M07) of active component mixed with water only; format: cell-based; details: active component mixed with water only (miscible state); about 0.0009 wt. % to about 8 wt. %
# Method: as §1
# [1] = system: Staphylococcus aureus (including MRSA strains); test: as above; format: cell-based; details: active component mixed with water only (miscible state); about 0.0009 wt. % to about 8 wt. %
# Method: as §1
# [2] = system: representative Gram-positive pathogens and yeast; test: Broth microdilution of lecithin/chitosan compositions, sonicated and/or filtered; format: cell-based; details: composition with lecithin and chitosan
# Description: In a further preparation, lauric acid derivative, 12-aminododecanoic acid or 12-amino-1-dodecanoic acid methyl ester, was suspended individually (and independently) in an organic solvent, chloroform, and mixed with water, generally under agitated conditions. Here, for each sample, the amount of water to the amount of chloroform was at least 2:1, and was as high as 10:1. This was followed by chloroform evaporation, generally under vacuum using a freeze dryer. After removal of the chloroform, a lecithin solution was added to each sample. The lecithin was in a solution of acetic acid (e.g., 98 mM acetic acid and 2 mM sodium acetate), in which the amount of lecithin in solution was between about 1% to 5%. With addition of lecithin, each sample mixture contained up to about 4.8% lecithin (or generally about 5% or less), and up to about 7.8% of one of the lauric acid derivatives (or generally about 8% or less). pH of the solution was neutral. It is noted that the lecithin should be in a suitable form (e.g., solution or granules) acceptable for internal utilization (e.g., pharmaceutical grade). The lecithin may also include cholesterol, or other lecithin variants as described above, with similar results. Chitosan was then added to each of the samples, and each sample was then independently sonicated, followed by independent sterilization by high pressure filtration. […]
# [3] = system: Gram-positive pathogens and Gram-negative pathogens; test: In vitro inhibitory activity of chitosan- or carrier-containing particles; format: cell-based
# Description: as §2, §3
# This also occurs when the chitosan- or carrier-containing particle includes an active component that has a log P value that is less than 4 and includes a methyl and/or ethyl side chain (e.g., 12-amino-1-dodecanoic acid methyl ester). […]
# [4] = system: gram-positive organisms, Streptococcus group A and Streptococcus beta-hemolytic non-A, and S. aureus, as well as Candida; details: background reports; free acid or ester used as such, in vitro/topical; cited from earlier work
# [5] = format: in vivo; details: mice, oral capsules approximately 4 mg active component in chitosan-containing particles, three times per day for seven days
# Description: Laboratory trials have shown that no resistance has developed in pathogens exposed to the compositions described herein, even with long term, repeated exposure (data not shown). In addition, no intrinsic resistance can or has been detected in target pathogens. […] A placebo group is also included, in which a group of 10 mice are given a placebo set of capsules, orally, three times per day and continued for seven days, each of the placebo set of capsules containing similarly prepared chitosan-containing particles without an active component, the preparation being generally as described herein. Initial mice have been infected with Salmonella typhimurium prior to oral delivery of one of the set of capsules. The capsules may be vegetable capsules. The capsules may have an enteric coating. For delivery, a formulation may be prepared in a manner understood in the relevant art. For delivery, a formulation may be in at least any one or more of the following forms: liquid, capsule, dried powder, mist, and the like. For delivery, the formulation will contain pharmaceutical grade materials, including one or more excipients and or fillers for internal and/or topical delivery in sufficient amounts known to those of skill in the relevant art. Flavors, colors, sugars, sugar-substitutes, and the like may also be included in any of the formulations, as is understood to those of skill in the relevant art.
# [6] = Table 3, lecithin/chitosan particle composition, prep. mixture pH 5 or pH 7, maximum concentration tested 10 mg/ml
# [7] = Table 3, lecithin/chitosan particle composition, prep. mixture pH 5 or pH 7, maximum concentration tested 10 mg/ml, read-out: MIC (mg/ml) S. epidermidis (chitosan prep. mixture at pH 5 or at pH 7)
# [8] = lecithin/chitosan particle composition, maximum concentration tested 10 mg/ml
# [9] = lecithin/chitosan particle composition, prep. mixture pH 5 or pH 7, maximum concentration tested 10 mg/ml, read-out: MIC (mg/ml) for S. epidermidis (chitosan prep. mixture was at pH 5 or at pH 7)
# [10] = synthesis (with chitosan) at pH 7 with positively charged chitosan
compound,measurement,setting,value
CCCCCCCCCCCC(=O)OCC(O)CO (racemic) [1-lauroyl-rac-glycerol],MIC,S. epidermidis; read-out: MIC (mg/ml) S. epidermidis (chitosan prep. mixture at pH 5 or at pH 7),10 mg/mL
CCCCCCCCCC(=O)CC(=O)NC1CCCCC1=O (stereo not drawn) [3-oxo-N-(2-oxocyclohexyl) dodecanamide],MIC (mg/ml) S. epidermidis (chitosan prep. mixture at pH 5 or at pH 7),S. epidermidis; [6],10 mg/ml
CCCCCCCCCCCC(=O)Oc1ccc([N+](=O)[O-])cc1 [4-nitrophenyl dodecanoate],MIC,S. epidermidis; [7],10 mg/mL
O=C(O)CCCCCCCCCCCNc1ccc([N+](=O)[O-])c2nonc12 [12-(7-nitrobenzofurazan-4-ylamino) dodecanoic acid],MIC,S. epidermidis; [7],10 mg/mL
NCCCCCCCCCCCC(=O)O [12-aminododecanoic acid],MIC,"E. coli; lecithin/chitosan particle composition, prep. mixture pH 9, maximum concentration tested 10 mg/ml, read-out: MIC (mg/ml) for E. coli (chitosan prep. mixture was at pH 9)",10 mg/mL
same,MIC,"E. coli; lecithin/glycol chitosan particle composition, prep. mixture pH 7, maximum concentration tested 10 mg/ml, read-out: MIC (mg/ml) for E. coli (chitosan prep. mixture was at pH 7 with glycol chitosan)",10 mg/mL
same,MIC (mg/ml) for E. coli (chitosan prep. mixture was at pH 5 or at pH 7),E. coli; [8],— (no inhibitory activity)
same,MIC,S. epidermidis; [9],10 mg/mL
same,"Inhibitory activity against Gram-negative bacteria (e.g., E. coli)",Escherichia coli,"does not, in the miscible state, demonstrate inhibitory activity"
same,"Inhibitory activity against Gram-positive bacteria (e.g., S. aureus)",[1],"does not, in the miscible state, demonstrate inhibitory activity"
same,Growth inhibitory activity against representative Gram-positive pathogens and yeast,[2],exhibited growth inhibitory activity
same,Inhibitory activity against both Gram-positive pathogens and Gram-negative pathogens,[3]; [10],stronger inhibitory activity as well as broad spectrum activity
CCCCCCCCCCCC(=O)OCc1ccccc1 [benzyl laurate],MIC,S. epidermidis; [7],10 mg/mL
CCCCCCCCCCCC(=O)OCCCC [butyl laurate],MIC,S. epidermidis; [7],10 mg/mL
CCCCCCCCCCCC(=O)OCC [ethyl laurate],Inhibitory activity reported in the literature,[4],inactive
CCCCCCCCCCCC(=O)OCCCCCC [hexyl laurate],MIC,S. epidermidis; [7],10 mg/mL
CCCCCCCCCCCC(=O)OCCC(C)C [isoamyl laurate],MIC,S. epidermidis; [7],10 mg/mL
CCCCCCCCCCCC(=O)OC(C)C [isopropyl laurate],MIC,S. epidermidis; [7],10 mg/mL
"CCCCCCCCCCCC(=O)O [lauric acid, dodecanoic acid]",Inhibitory activity reported in the literature,[4],weak inhibitory activity
CCCCCCCCCCCC(=O)OC [methyl laurate],Inhibitory activity reported in the literature,[4],ineffective
CCCCCCCCCCCC(=O)OCC(O)CO (stereo not drawn) [monolaurin],MIC (mg/ml) S. epidermidis (chitosan prep. mixture at pH 5 or at pH 7),S. epidermidis; [6],10 mg/ml
"CCCCCCCC(=O)O [octanoic acid, reference compound]",MIC (mg/ml) for E. coli (chitosan prep. mixture was at pH 5 or at pH 7),E. coli; [8],— (no inhibitory activity)
same,Inhibitory activity against representative Gram-negative bacteria,"E. coli; particulated compositions manipulated to impart positivity (glycol chitosan at neutral pH, or prepared at pH 9)",not found to exhibit inhibitory activity
same,MIC,S. epidermidis; [7],10 mg/mL
same,MIC,S. epidermidis; [9],10 mg/mL
CCCCCCCCCCCC(=O)OCCCCC [pentyl laurate],MIC,S. epidermidis; [7],10 mg/mL
sucrose monolaurate,MIC (mg/ml) for E. coli (chitosan prep. mixture was at pH 5 or at pH 7),E. coli; [8],— (no inhibitory activity)
same,MIC (mg/ml) for E. coli (chitosan prep. mixture was at pH 9),"E. coli; lecithin/chitosan particle composition, prep. mixture pH 9, maximum concentration tested 10 mg/ml",10 mg/ml
same,MIC (mg/ml) for E. coli (chitosan prep. mixture was at pH 7 with glycol chitosan),"E. coli; lecithin/glycol chitosan particle composition, prep. mixture pH 7, maximum concentration tested 10 mg/ml",10 mg/ml
same,MIC (mg/ml) for S. epidermidis (chitosan prep. mixture was at pH 5 or at pH 7),"S. epidermidis; lecithin/chitosan particle composition, prep. mixture pH 5 or pH 7, maximum concentration tested 10 mg/ml",10 mg/ml
same,Inhibitory activity against both Gram-positive pathogens and Gram-negative pathogens,[3]; [10],stronger inhibitory activity as well as broad spectrum activity
same,Inhibitory activity against both Gram-positive pathogens and Gram-negative pathogens,[3]; synthesis (with chitosan) at pH 9,stronger inhibitory activity as well as broad spectrum activity
same,Safety in animal trials,[5],no safety concerns
